Laboratory results as given in patent US10556865B2, “Synergistic herbicidal composition containing certain pyridine or pyrimidine carboxylic acids and certain cereal and rice herbicides” (Dow AgroSciences, LLC, priority 2007, dated 2020).
Like-named read-outs stand apart in the source and are kept apart here.

Experiments:
Type in all cases: in vivo
[1] = system: littleseed Canarygrass (Phalaris minor L; PHAMI); test: Postemergence herbicidal activity of mixtures in cereal crops (greenhouse, visual injury); details: for PHAMI: Table 13
Outline: (§1)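 Plants at second-third true leaf stage sprayed postemergence at 187 L/ha with compound and second cereal herbicide alone and combined; solvent blank controls. Visual injury scored 0-100% versus controls after 20-22 days; expected mixture effects by Colby's equation.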

[2] = system: windgrass (Apera spica-venti L; APESV); test: as above; details: for pest or weed control at 17.5 g/ha / pest or weed control at 35 g/ha / pest or weed control at 70 g/ha / pest or weed control at 140 g/ha / pest or weed control at 8.75 g/ha: Apera spica-venti, post-emergence, read-out: APESV Ob
Outline: as §1

[3] = system: Leptochloa chinensis (L.) NEES (LEFCH); test: Herbicidal mixtures for weed control in transplanted paddy rice (in-water application, visual % injury)
Outline: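 Flooded pots of puddled soil (54 percent sand, pH about 7.3 to 7.8) held weeds grown 4-14 days at about 29° C day, 26° C night. The herbicides, alone and in mixtures, were injected into the paddy water, then plants were scored visually for percent injury after 3 weeks.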

COC(=O)c1nc(-c2ccc(Cl)c(OC)c2F)cc(N)c1Cl [Compound A Methyl, 4-amino-3-chloro-6-(4-chloro-2-fluoro-3-methoxyphenyl)pyridine-2-carboxylic acid methyl ester]
PHAMI Ob ([1]; 17.5 g/ha, Table 4): 20% | PHAMI Ob ([1]; 17.5 g/ha, Table 5): 20% | PHAMI Ob ([1]; 17.5 g/ha, Table 6): 20% | PHAMI Ob ([1]; 35 g/ha, Table 3): 30% | PHAMI Ob ([1]; 35 g/ha, Table 4): 30% | PHAMI Ob ([1]; 35 g/ha, Table 5): 30% | PHAMI Ob ([1]; 35 g/ha, Table 6): 30% | PHAMI Ob ([1]; 35 g/ha, Table 11): 3% | PHAMI Ob ([1]; 70 g/ha, Table 3): 35% | PHAMI Ob ([1]; 70 g/ha, Table 4): 35% | PHAMI Ob ([1]; 70 g/ha, Table 5): 35% | PHAMI Ob ([1]; 70 g/ha, Table 6): 35% | PHAMI Ob ([1]; 70 g/ha, Table 11): 6% | PHAMI Ob ([1]; 140 g/ha, Table 11): 17% | pest or weed control at 17.5 g/ha ([2]; 17.5 g/ha, Table 1): 20% | pest or weed control at 17.5 g/ha ([2]; 17.5 g/ha, Table 4): 0% | pest or weed control at 17.5 g/ha ([2]; 17.5 g/ha, Table 5): 0% | pest or weed control at 35 g/ha ([2]; 35 g/ha, Table 1): 20% | pest or weed control at 35 g/ha ([2]; 35 g/ha, Table 3): 10% | pest or weed control at 35 g/ha ([2]; 35 g/ha, Table 4): 10% | pest or weed control at 35 g/ha ([2]; 35 g/ha, Table 5): 10% | pest or weed control at 70 g/ha ([2]; 70 g/ha, Table 1): 30% | pest or weed control at 70 g/ha ([2]; 70 g/ha, Table 3): 10% | pest or weed control at 70 g/ha ([2]; 70 g/ha, Table 4): 10% | pest or weed control at 70 g/ha ([2]; 70 g/ha, Table 5): 10% | % Injury Ob ([3]; 8.75 g/ha alone): 0% | % Injury Ob ([3]; 17.5 g/ha alone): 0% | % Injury Ob ([3]; 35 g/ha alone): 0% | % Injury LEFCH Ob ([3]; Compound A Methyl 17.5 g/ha alone): 10% | % Injury LEFCH Ob ([3]; Compound A Methyl 35 g/ha alone): 20%

COc1c(Cl)ccc(-c2cc(N)c(Cl)c(C(=O)O)n2)c1F [Compound A TEA, 4-amino-3-chloro-6-(4-chloro-2-fluoro-3-methoxyphenyl)pyridine-2-carboxylic acid]
PHAMI ([1]; 35 g/ha): 0% | PHAMI Ob ([1]; 35 g/ha, Table 16): 0% | PHAMI Ob ([1]; 35 g/ha, Table 18): 0% | PHAMI ([1]; 70 g/ha): 0% | PHAMI Ob ([1]; 70 g/ha, Table 16): 0% | PHAMI Ob ([1]; 70 g/ha, Table 18): 0% | PHAMI ([1]; 140 g/ha): 0% | PHAMI Ob ([1]; 140 g/ha, Table 16): 0% | PHAMI Ob ([1]; 140 g/ha, Table 18): 0% | pest or weed control at 35 g/ha ([2]; 35 g/ha, Table 14): 8% | pest or weed control at 35 g/ha ([2]; 35 g/ha, Table 15): 3% | pest or weed control at 35 g/ha ([2]; 35 g/ha, Table 16): 3% | pest or weed control at 35 g/ha ([2]; 35 g/ha, Table 17): 3% | pest or weed control at 35 g/ha ([2]; 35 g/ha, Table 18): 8% | pest or weed control at 70 g/ha ([2]; 70 g/ha, Table 14): 13% | pest or weed control at 70 g/ha ([2]; 70 g/ha, Table 15): 0% | pest or weed control at 70 g/ha ([2]; 70 g/ha, Table 16): 0% | pest or weed control at 70 g/ha ([2]; 70 g/ha, Table 17): 0% | pest or weed control at 70 g/ha ([2]; 70 g/ha, Table 18): 13% | pest or weed control at 140 g/ha ([2]; Table 14): 15% | pest or weed control at 140 g/ha ([2]; Table 15): 4% | pest or weed control at 140 g/ha ([2]; Table 16): 4% | pest or weed control at 140 g/ha ([2]; Table 17): 4% | pest or weed control at 140 g/ha ([2]; Table 18): 15% | % Injury Ob ([3]; 35 g/ha alone): 80% | % Injury Ob ([3]; 70 g/ha alone): 99% | % Injury LEFCH Ob ([3]; Compound A TEA 17.5 g/ha alone): 10% | % Injury LEFCH Ob ([3]; Compound A TEA 35 g/ha alone): 15%

COC(=O)c1nc(-c2ccc(Cl)c(OC)c2F)nc(N)c1Cl [Compound B Methyl, 6-amino-5-chloro-2-(4-chloro-2-fluoro-3-methoxyphenyl)pyrimidine-4-carboxylic acid methyl ester]
PHAMI Ob ([1]; 8.75 g/ha): 0% | PHAMI Ob ([1]; 8.75 g/ha, Table 20): 0% | PHAMI Ob ([1]; 8.75 g/ha, Table 22): 0% | PHAMI Ob ([1]; 17.5 g/ha): 0% | PHAMI Ob ([1]; 17.5 g/ha, Table 20): 0% | PHAMI Ob ([1]; 17.5 g/ha, Table 22): 0% | PHAMI Ob ([1]; 35 g/ha): 0% | PHAMI Ob ([1]; 35 g/ha, Table 20): 0% | PHAMI Ob ([1]; 35 g/ha, Table 22): 0% | PHAMI Ob ([1]; 70 g/ha): 0% | PHAMI Ob ([1]; 70 g/ha, Table 20): 0% | PHAMI Ob ([1]; 70 g/ha, Table 22): 0% | APESV Ob ([2]; 8.75 g/ha): 0% | APESV Ob ([2]; 17.5 g/ha): 0% | APESV Ob ([2]; 35 g/ha): 0% | APESV Ob ([2]; 70 g/ha): 0% | pest or weed control at 8.75 g/ha ([2]; 8.75 g/ha, Table 20): 0% | pest or weed control at 8.75 g/ha ([2]; 8.75 g/ha, Table 22): 0% | pest or weed control at 17.5 g/ha ([2]; 17.5 g/ha, Table 20): 0% | pest or weed control at 17.5 g/ha ([2]; 17.5 g/ha, Table 22): 0% | pest or weed control at 35 g/ha ([2]; 35 g/ha, Table 20): 0% | pest or weed control at 35 g/ha ([2]; 35 g/ha, Table 22): 0% | pest or weed control at 70 g/ha ([2]; 70 g/ha, Table 20): 0% | pest or weed control at 70 g/ha ([2]; 70 g/ha, Table 22): 0%

O=C(O)c1c(Cl)ccc2cc(Cl)cnc12 [Quinclorac]
% Injury LEFCH Ob ([3]; Quinclorac 140 g/ha alone (Compound A Methyl half)): 0% | % Injury LEFCH Ob ([3]; Quinclorac 140 g/ha alone (Compound A TEA half)): 0%
